Experimental data as given in ChEMBL document CHEMBL1201862, “PubChem BioAssay data set” (2004).
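Step 1: Grow cells in 96-well plates. Step 2: Expose to compound for 48 hours at 5 concentrations. Step 3: Interpolate endpoints linearly; if unreached, use highest concentration. At the GI50, growth is halved.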 The source made the active and inactive calls. No stated cut-off is given here; in the data, active = GI50 up to about 1.1 µM and inactive = higher.

Tests used:
Test in all cases: DTP human tumour cell line panel, 48 h
[1] = tested on: A498
[2] = tested on: BT-549
[3] = tested on: HCT-15
[4] = tested on: HOP-62
[5] = tested on: Hs-578T
[6] = tested on: IGROV-1
[7] = tested on: LOX IMVI
[8] = tested on: Malme-3M
[9] = tested on: NCI-H23
[10] = tested on: OVCAR-8
[11] = tested on: SF-268
[12] = tested on: SF-295
[13] = tested on: SNB-75
[14] = tested on: SR
[15] = tested on: TK-10
[16] = tested on: UACC-257
[17] = tested on: UO-31
[18] = tested on: NCI-H522
[19] = tested on: SF-539

Measured: GI50

CCN(CC)C(=O)COc1cc2c(O)c3c(O)c(C)c4c(c13)C(=O)C(C)(OC=CC(OC)C(C)C(OC(C)=O)C(C)C(O)C(C)C(O)C(C)C=CC=C(C)C(=O)N2)O4 (configuration not stated)
> 100 µM: [3]
inactive: [1] > 100 µM | [2] > 100 µM | [4] > 100 µM | [5] > 100 µM | [6] > 100 µM | [7] > 100 µM | [8] > 100 µM | [9] > 100 µM | [10] > 100 µM | [11] > 100 µM | [12] > 100 µM | [13] > 100 µM | [14] > 100 µM | [15] > 100 µM | [16] > 100 µM | [17] > 100 µM

C[C@@H]1[C@@H](c2ccccc2)O[B-](c2ccccc2)(c2ccccc2)N1C
40.2 µM: [3]
inactive: [1] 34.8 µM | [2] 30.7 µM | [4] > 100 µM | [5] 33.4 µM | [6] 69 µM | [7] 61.9 µM | [8] 29.5 µM | [9] 35.6 µM | [18] 34.5 µM | [10] 72.3 µM | [11] 64 µM | [12] 62.4 µM | [19] 27.3 µM | [14] 21.7 µM | [15] 32.8 µM | [16] 50.6 µM | [17] 20.9 µM

O=C(Cn1c(C(=O)/C=C/c2cccs2)nc2ccccc21)c1ccc(Cl)cc1
inactive: [1] 19.9 µM | [2] 21 µM | [4] 25.9 µM | [5] 12.8 µM | [6] 16.7 µM | [7] 13.9 µM | [8] 13.6 µM | [9] 14.7 µM | [11] 12.6 µM | [19] 32.2 µM | [13] 24.2 µM | [14] 3.09 µM | [15] 27 µM | [16] 17.9 µM | [17] 24.1 µM
21.5 µM: [3]

Cn1ccc(C(=O)N2CCSC2=S)c(OCc2ccccc2)c1=O
> 100 µM: [3]
inactive: [1] > 100 µM | [2] > 100 µM | [5] > 100 µM | [7] > 100 µM | [8] 87.7 µM | [9] > 100 µM | [18] 39.2 µM | [10] > 100 µM | [11] > 100 µM | [13] 70.1 µM | [14] 26.7 µM | [15] > 100 µM | [16] > 100 µM | [17] 67.8 µM

C=CCC1C(=O)Nc2cccc3ncn(c23)C1=O (configuration not stated)
inactive: [1] > 100 µM | [2] > 100 µM | [4] > 100 µM | [5] > 100 µM | [6] > 100 µM | [8] > 100 µM | [9] > 100 µM | [10] > 100 µM | [11] > 100 µM | [12] > 100 µM | [19] > 100 µM | [13] > 100 µM | [14] > 100 µM | [16] > 100 µM | [17] > 100 µM
> 100 µM: [3]

CC(=O)O[C@H]1C(=O)[C@@]2(C)[C@H]([C@H](OC(=O)c3ccc([N+](=O)[O-])cc3)[C@]3(O)C[C@H](OC(=O)[C@H](O)[C@@H](NC(=O)c4ccccc4)c4ccccc4)C(C)=C1C3(C)C)[C@]1(OC(C)=O)CO[C@@H]1C[C@@H]2O
> 25 µM: [3]
inactive: [1] > 25 µM | [2] > 25 µM | [4] > 25 µM | [5] > 25 µM | [6] > 25 µM | [8] > 25 µM | [9] > 25 µM | [18] > 25 µM | [10] > 25 µM | [11] > 25 µM | [12] > 25 µM | [19] > 25 µM | [13] > 25 µM | [14] > 25 µM | [15] > 25 µM | [16] > 25 µM | [17] > 25 µM

COc1ccc2c(c1OC)C(=O)O[C@@H]2[C@H]1c2cc3c(cc2CCN1C)OCO3
> 100 µM: [3]
inactive: [1] > 100 µM | [2] > 100 µM | [4] > 100 µM | [5] > 100 µM | [6] > 100 µM | [7] > 100 µM | [9] > 100 µM | [18] > 100 µM | [10] > 100 µM | [11] > 100 µM | [12] > 100 µM | [19] > 100 µM | [13] > 100 µM | [14] > 100 µM | [15] > 100 µM | [16] > 100 µM | [17] > 100 µM

N=C(N)NS(=O)(=O)c1ccc(NC(=O)c2ccc3nc4ccccc4c(N)c3c2)cc1
> 100 µM: [3]
inactive: [2] > 100 µM | [4] > 100 µM | [5] > 100 µM | [6] > 100 µM | [7] > 100 µM | [8] > 100 µM | [9] > 100 µM | [18] > 100 µM | [10] > 100 µM | [11] > 100 µM | [12] > 100 µM | [19] > 100 µM | [13] > 100 µM | [14] > 100 µM | [15] > 100 µM | [16] > 100 µM | [17] > 100 µM

COc1c(C)c(OC)c(C(=O)CC(C)C)c(OC)c1C
37.1 µM: [3]
inactive: [1] > 100 µM | [2] > 100 µM | [4] > 100 µM | [5] > 100 µM | [6] > 100 µM | [7] 62.7 µM | [8] > 100 µM | [9] 83 µM | [18] > 100 µM | [10] > 100 µM | [11] > 100 µM | [12] > 100 µM | [19] > 100 µM | [14] 21.4 µM | [15] > 100 µM | [16] > 100 µM | [17] 49.9 µM

CCN1C[C@]2(C)CC[C@H](OCc3ccccc3)C34C5C[C@@H]6CC[C@](O)(C(C[C@@H]32)C14)C5[C@H]6OCc1ccccc1 (some centres not stated)
> 100 µM: [3]
inactive: [1] > 100 µM | [2] > 100 µM | [4] > 100 µM | [5] > 100 µM | [6] 92.3 µM | [7] > 100 µM | [8] > 100 µM | [9] > 100 µM | [10] 93.8 µM | [11] > 100 µM | [12] > 100 µM | [19] > 100 µM | [13] 49 µM | [14] 54.8 µM | [15] 45.8 µM | [16] 29.9 µM | [17] 73.1 µM

N=c1oc2ccc(Cl)cc2cc1C(N)=O
29.4 µM: [3]
inactive: [1] 32.7 µM | [2] 35.2 µM | [5] 18.5 µM | [6] 21.4 µM | [7] 31.8 µM | [8] 17.6 µM | [9] 22.4 µM | [10] 33.2 µM | [11] 26.3 µM | [19] 31.3 µM | [13] 26.1 µM | [14] 65.3 µM | [16] 45.4 µM

CC(C)(C)OC(=O)NC(Cc1ccc(OCc2ccccc2)cn1)C(=O)O (configuration not stated)
inactive: [1] > 100 µM | [2] > 100 µM | [4] > 100 µM | [5] > 100 µM | [6] > 100 µM | [7] > 100 µM | [8] > 100 µM | [9] > 100 µM | [18] 67 µM | [10] > 100 µM | [11] > 100 µM | [12] > 100 µM | [19] > 100 µM | [14] > 100 µM | [15] > 100 µM | [16] > 100 µM | [17] > 100 µM
> 100 µM: [3]

Cc1ccc2nc(-c3ccc(N)c(Br)c3)sc2c1
active: [18] 0.875 µM
inactive: [1] > 100 µM | [2] 14.9 µM | [4] 13.5 µM | [5] 14.2 µM | [7] 13.2 µM | [8] > 100 µM | [9] 22.2 µM | [10] 48.2 µM | [11] 10.6 µM | [12] 34.8 µM | [19] 33.1 µM | [14] 11 µM | [16] 20 µM | [17] 5.27 µM
7.01 µM: [3]

CCCCOC(=O)NC(c1ccccc1)C(O)C(=O)OC1C[C@@]2(O)C(OC(=O)c3ccccc3)C3[C@](C)(C(=O)[C@H](OC(C)=O)C(=C1C)C2(C)C)[C@@H](O)C[C@H]1OC[C@@]31OC(C)=O (some centres not stated)
0.145 µM: [3]
active: [1] 0.0056 µM | [2] 0.0148 µM | [4] 0.0239 µM | [5] 0.00191 µM | [6] 0.00405 µM | [7] 0.00427 µM | [9] 0.0139 µM | [18] 0.00234 µM | [10] 0.0117 µM | [11] 0.0113 µM | [12] 0.0159 µM | [19] 0.00305 µM | [13] 0.0179 µM | [14] 0.00499 µM | [15] 0.101 µM | [17] 0.176 µM

O=C(c1ccc(Cl)cc1)C(O)c1ccc(Cl)cc1 (configuration not stated)
inactive: [2] 53.8 µM | [4] > 100 µM | [5] 45.3 µM | [6] 85.3 µM | [7] > 100 µM | [8] 40.3 µM | [9] 70.3 µM | [18] 42 µM | [10] 63.2 µM | [11] > 100 µM | [12] > 100 µM | [19] 65.5 µM | [13] > 100 µM | [14] 25.4 µM | [15] 63.4 µM | [16] 52.8 µM | [17] > 100 µM
> 100 µM: [3]

O=C(CCc1ccc(O)c(O)c1)NCCc1cc(O)cc(OCc2ccccc2)c1
inactive: [1] > 100 µM | [2] 10.6 µM | [4] 61.1 µM | [5] 45.9 µM | [6] 39.1 µM | [7] 26.3 µM | [9] 21.6 µM | [18] 5.14 µM | [11] 31.4 µM | [12] 46.7 µM | [19] 27.2 µM | [13] 15.6 µM | [14] 21.1 µM | [15] > 100 µM | [16] > 100 µM | [17] 4.69 µM
11.6 µM: [3]
